Results as given in US6414031B1, “Bisoximether derivatives, methods and intermediate products for the production thereof, and their use for combating fungicidal pests and animal pests” (BASF Aktiengesellschaft, priority 1998, dated 2002).

How the values were obtained:
Format in all cases: in vivo
Nephotettix cincticeps [1] = test: Action against Nephotettix cincticeps, contact action (filter disks); details: treated filter disks, adult leafhoppers, mortality after 24 hours
Description: (§1) The active ingredients were formulated
(§2) a. as a 0.1% strength solution in acetone or
(§3) b. as a 10% emulsion in a mixture of 70% by weight of cyclohexanone, 20% by weight of Nekanil® LN (Lutensol® AP6, wetter having emulsifying and dispersant action, based on ethoxylated alkylphenols) and 10% by weight of Wettol® EM (non-ionic emulsifier based on ethoxylated castor oil)
(§4) and diluted to give the desired concentration, using acetone in the case of a. and water in the case of b.
Filter disks (Ø 9 cm) were treated with 1 ml of aqueous formulations of the active ingredient and subsequently populated with five adult leafhoppers. The mortality was determined after 24 hours.

Nephotettix cincticeps [2] = test: Action against Nephotettix cincticeps (crop spray experiment); details: sprayed rice plants, adult leafhoppers, mortality after 24 hours
Description: as §1, §2, §3, §4
Rice plants grown in pots (plant height approximately 8 cm) were sprayed to runoff point with aqueous formulations of active ingredients. After drying, the plants were populated with 20 adult leafhoppers. The mortality was determined after 24 hours.

Puccinia recondita = test: Curative activity against Puccinia recondita on wheat (leaf rust); details: 1 ppm, wheat sprayed 1 day after infection, assessed after 7 days, untreated 90%
Description: as §3, with “The active ingredients, separately or together, were formulated” for “b.”, “[…],” for “cyclohexanone,”, “oil) and diluted with water to give the desired concentration.” for “oil)”
Leaves of wheat seedling cv. “Kanzler” grown in pots were dusted with leaf rust spores (Puccinia recondita). The pots were then placed for 24 hours into a chamber with high atmospheric humidity (90 to 95%) and 20 to 22° C. During this time, the spores germinated and the germ tubes penetrated the leaf tissue. Next day, the infected plants were sprayed to runoff with an aqueous active ingredient preparation made with a stock solution consisting of 10% of active ingredient, 63% of cyclohexanone and 27% of emulsifier. After the spray coating had dried on, the test plants were grown in the greenhouse for 7 days at temperatures between 20 and 22° C. and a relative atmospheric humidity of 65 to 70%. The extent of rust development on the leaves was then determined.

Plasmopara viticola = test: Activity against Plasmopara viticola on grape leaves (long-term action); details: 16 ppm, grape leaves inoculated 7 days after spraying; untreated 85%
Description: as §3, with “The active ingredients, separately or together, were formulated” for “b.”, “[…],” for “cyclohexanone,”, “oil) and diluted with water to give the desired concentration.” for “oil)”
Leaves of grapes cv. “Müller-Thurgaul” in pots were sprayed to runoff with aqueous active ingredient preparations made with a stock solution of 10% active ingredient, 63% cyclohexanone and 27% of emulsifier. In order to be able to assess the long-term action of the substances, the spray coating was allowed to dry off and the plants were then placed in the greenhouse for 7 days. Only then were the leaves inoculated with an aqueous zoospore suspension of Plasmopara viticola. Then, the vines were first placed for 48 hours into a water-vapor-saturated chamber at 24° C. and then for 5 days in the greenhouse at temperatures between 20 and 30° C. After this time, the plants were returned to a humid chamber for 16 hours to accelerate sporangiophore eruption for 16 hours. The extent of the disease development on the undersides of the leaves was then determined visually.

Aphis fabae = test: Action against Aphis fabae, contact action; details: infested dwarf beans (Vicia faba), mortality after 24 hours
Description: as §1, §2, §3, §4
Severely infested dwarf beans (Vicia faba) in the four-leaf stage were treated with aqueous formulations of active ingredient. The mortality rate was determined after 24 hours.

SMILES	limit concentration (lowest concentration with 80 to 100% inhibition or mortality) (Nephotettix cincticeps [1])	limit concentration (lowest concentration with 80 to 100% inhibition or mortality) (Nephotettix cincticeps [2])	disease level (extent of rust development on the leaves) (Puccinia recondita)	disease level (undersides of the leaves) (Plasmopara viticola)	limit concentration (lowest concentration with 80 to 100% inhibition or mortality) (Aphis fabae)
CC=C(C(=O)OC)c1ccccc1CON=C(C)C(=NOC)C1CCCCC1 [B]	0.2 mg	400 ppm			
CC=C(C(=O)OC)c1ccccc1CON=C(C)C(=NOC)C1CCC(C)CC1 (centres unmarked) [Compound I-4]	0.04 mg				
COC=C(C(=O)OC)c1ccccc1CON=C(C)C(=NOC)C1CCC(C)CC1 (centres unmarked) [Compound I-3]	0.04 mg				
CNC(=O)C(=NOC)c1ccccc1CON=C(C)C(=NOC)C1CCCCC1 [D]			90%	60%	
CON=C(C(=O)OC)c1ccccc1CON=C(C)C(=NOC)C1CCCCC1 [C]					100 ppm
COC=C(C(=O)OC)c1ccccc1CON=C(C)C(=NOC)C1CCCCC1 [A]	0.2 mg	400 ppm	90%		100 ppm
